Assay results from US20050038022A1, “Method for treatment of cancer and compositions for use therein” (Unisearch Limited, priority 2001, published 2005).

Key:
[1] = test system: HepG2, SKHEP-1 and Hep 3B; test: Albendazole/ABS proliferation test, liver cancer cells; type: cell-based, human; details: 5 days, 0.5% DMSO
Protocol: (§1) In order to be able to test ABS, a proper solvent had to be found. […] Therefore to allow direct comparison between the 2 compounds, all subsequent experiments were run using 0.5% DMSO for both ABS and albendazole. In the cell lines examined, albendazole produced very similar results to what we had previously reported for the drug in liver cancer cells.
(§2) Both albendazole and ABS were tested side by side against various cell lines as follows: • Liver—HepGZ Hep3B, SKHEP-1 • Colorectal—170, LOVO, HT-29 • Prostate—PC3, LNCap, Du145 • Leukeamic—HL60
(§3) Cells were treated with various concentrations of each compound for a period of 5 days.

C-170, LOVO and HT-29 = test: Albendazole/ABS proliferation test, colorectal cell lines; type: cell-based; details: C-170, LOVO and HT-29, 5 days, 0.5% DMSO
Protocol: as §1, §2, §3

PC3, LNCap and Du 145 = test: Albendazole/ABS proliferation test, prostate cancer cells; type: cell-based, human; details: PC3, LNCap and Du 145; ABS compared with albendazole
Protocol: as §1, §2, §3

[2] = test system: liver, colorectal, prostate and leukeamic cell lines; test: Albendazole/ABS side by side in various cell lines (general); type: cell-based
Protocol: as §1, §2
The fist 9 cell lines were used to compare effectiveness and potency while, the last one was used to assess toxicity on bone marrow (as a rough guide).
as §3

Solubility in solvent = type: physicochemical
Source text: as §1

[3] = sulphoxide metabolite after oral albendazole, man; cited from earlier work

CCC[S+]([O-])c1ccc2[nH]c(NC(=O)OC)nc2c1 (stereo not shown) [ABS, albendazole sulphoxide]
proliferation of human liver cancer cells [1]: inhibit proliferation
activity against colorectal cell lines (C-170, LOVO and HT-29): same sort of activity
potency in inhibiting proliferation, metabolite versus drug (PC3, LNCap and Du 145): almost equipotent
antiproliferative activity at 0.25 micromoles/L ([2]; 0.25 micromoles/L, 5 days): dramatically increasing
effectiveness compared with parent drug ([2]; 10 different cell lines, earlier results, latest results cast doubt): as effective as the parent drug
inhibition at 1 µM ([2]; 120 h, 1 micromoles/L, 5 days): ~100%
concentration at which antiproliferative activity becomes evident ([2]; 5 days, 0.5% DMSO, in general): 0.01 µmol/L
solubility in ethanol (Solubility in solvent): not soluble in ethanol
peak plasma concentrations [3]: 200 to 300 ng/mL
plasma half life [3]: 8 to 9 h
